System: GM1 production in Jurkat cells
Test: cells
Format: cell-based
Settings: Homo sapiens, Jurkat, 72 h

SMILES	IC50
CC1(C)Cc2cc(-c3ccc(OCCF)cc3)ccc2C1NC(=O)O[C@@H]1CN2CCC1CC2 (stereo partly drawn) [Example 115, (S)-quinuclidin-3-yl (5-(4-(2-fluoroethoxy)phenyl)-2,2-dimethyl-2,3-dihydro-1H-inden-1-yl)carbamate]	38.3 nM
CC1(C)Cc2cc(-c3ccc(C(F)(F)F)cc3)ccc2C1NC(=O)O[C@@H]1CN2CCC1CC2 (stereo partly drawn) [Example 75, (S)-quinuclidin-3-yl (2,2-dimethyl-5-(4-(trifluoromethyl)phenyl)-2,3-dihydro-1H-inden-1-yl)carbamate]	8.3 nM
O=C(NC1CCc2ccc(-c3ccc(F)c(F)c3F)cc21)O[C@@H]1CN2CCC1CC2 (stereo partly drawn) [Example 45, (S)-quinuclidin-3-yl (6-(2,3,4-trifluorophenyl)-2,3-dihydro-1H-inden-1-yl)carbamate]	57.3 nM
CC(C)Cc1cccc(-c2cc3c(cc2F)C(NC(=O)O[C@@H]2CN4CCC2CC4)C(C)(C)C3)c1 (stereo partly drawn) [Example 372, (S)-quinuclidin-3-yl (6-fluoro-5-(3-isobutylphenyl)-2,2-dimethyl-2,3-dihydro-1H-inden-1-yl)carbamate]	46.2 nM
CCCCOc1ccc(-c2ccc3c(c2)CC(C)(C)C3NC(=O)O[C@@H]2CN3CCC2CC3)cn1 (stereo partly drawn) [Example 266, (S)-quinuclidin-3-yl (5-(6-butoxypyridin-3-yl)-2,2-dimethyl-2,3-dihydro-1H-inden-1-yl)carbamate]	4.7 nM
Cc1c(Cl)cccc1-c1ccc2c(c1)CC(C)(C)C2NC(=O)O[C@@H]1CN2CCC1CC2 (stereo partly drawn) [Example 253, (S)-quinuclidin-3-yl (5-(3-chloro-2-methylphenyl)-2,2-dimethyl-2,3-dihydro-1H-inden-1-yl)carbamate]	37.2 nM
CCc1cccc(-c2ccc3c(c2)CC(C)(C)C3NC(=O)O[C@@H]2CN3CCC2CC3)c1 (stereo partly drawn) [Example 108, (S)-quinuclidin-3-yl (5-(3-ethylphenyl)-2,2-dimethyl-2,3-dihydro-1H-inden-1-yl)carbamate]	7.6 nM
COc1cc(-c2cc3c(cc2F)C(NC(=O)O[C@@H]2CN4CCC2CC4)C(C)(C)C3)ccn1 (stereo partly drawn) [Example 369, (S)-quinuclidin-3-yl (6-fluoro-5-(2-methoxypyridin-4-yl)-2,2-dimethyl-2,3-dihydro-1H-inden-1-yl)carbamate]	172 nM
O=C(NC1CCc2cc(-c3ccc(Cl)c(Cl)c3)ccc21)O[C@@H]1CN2CCC1CC2 (stereo partly drawn) [Example 23, (S)-quinuclidin-3-yl (5-(3,4-dichlorophenyl)-2,3-dihydro-1H-inden-1-yl)carbamate]	63.7 nM
COc1ccc(F)cc1-c1ccc2c(c1)CC(C)(C)C2NC(=O)O[C@@H]1CN2CCC1CC2 (stereo partly drawn) [Example 234, (S)-quinuclidin-3-yl (5-(5-fluoro-2-methoxyphenyl)-2,2-dimethyl-2,3-dihydro-1H-inden-1-yl)carbamate]	13.6 nM
CCc1ccc(-c2cc3c(cc2OC)C(NC(=O)O[C@@H]2CN4CCC2CC4)C(C)(C)C3)cc1 (stereo partly drawn) [Example 312, (S)-quinuclidin-3-yl (5-(4-ethylphenyl)-6-methoxy-2,2-dimethyl-2,3-dihydro-1H-inden-1-yl)carbamate]	13.1 nM
O=C(NC1CCc2cc(-c3ccc(F)c(F)c3)ccc21)O[C@@H]1CN2CCC1CC2 (stereo partly drawn) [Example 15, (S)-quinuclidin-3-yl (5-(3,4-difluorophenyl)-2,3-dihydro-1H-inden-1-yl)carbamate]	34.4 nM
O=C(NC1CCc2cc(-c3ccccc3F)ccc21)O[C@@H]1CN2CCC1CC2 (stereo partly drawn) [Example 9, (S)-quinuclidin-3-yl (5-(2-fluorophenyl)-2,3-dihydro-1H-inden-1-yl)carbamate]	93.1 nM
CCC1(CC)Cc2cc(-c3ccc(C(C)(C)C)cc3)ccc2C1NC(=O)O[C@@H]1CN2CCC1CC2 (stereo partly drawn) [Example 279, (S)-quinuclidin-3-yl (5-(4-(tert-butyl)phenyl)-2,2-diethyl-2,3-dihydro-1H-inden-1-yl)carbamate]	7.3 nM
O=C(NC1CCc2cc(-c3ccc(F)cc3)ccc21)O[C@@H]1CN2CCC1CC2 (stereo partly drawn) [Example 1, (S)-quinuclidin-3-yl (5-(4-fluorophenyl)-2,3-dihydro-1H-inden-1-yl)carbamate]	139 nM
CC1(C)Cc2ccc(-c3ccc(Cl)cc3)cc2C1NC(=O)O[C@@H]1CN2CCC1CC2 (stereo partly drawn) [Example 50, (S)-quinuclidin-3-yl (6-(4-chlorophenyl)-2,2-dimethyl-2,3-dihydro-1H-inden-1-yl)carbamate]	52.3 nM
CN(C)c1cccc(-c2ccc3c(c2)CC(C)(C)C3NC(=O)O[C@@H]2CN3CCC2CC3)c1 (stereo partly drawn) [Example 106, (S)-quinuclidin-3-yl (5-(3-(dimethylamino)phenyl)-2,2-dimethyl-2,3-dihydro-1H-inden-1-yl)carbamate]	5.8 nM
COc1ccc(Cl)cc1-c1ccc2c(c1)CC(C)(C)C2NC(=O)O[C@@H]1CN2CCC1CC2 (stereo partly drawn) [Example 210, (S)-quinuclidin-3-yl (5-(5-chloro-2-methoxyphenyl)-2,2-dimethyl-2,3-dihydro-1H-inden-1-yl)carbamate]	7.5 nM
CCOc1ccc(-c2cc3c(cc2OC)C(NC(=O)O[C@@H]2CN4CCC2CC4)C(C)(C)C3)cc1F (stereo partly drawn) [Example 347, (S)-quinuclidin-3-yl (5-(4-ethoxy-3-fluorophenyl)-6-methoxy-2,2-dimethyl-2,3-dihydro-1H-inden-1-yl)carbamate]	46.8 nM

SMILES	IC50
CC1(C)Cc2cc(-c3cc(Cl)ccc3Cl)ccc2C1NC(=O)O[C@@H]1CN2CCC1CC2 (stereo partly drawn) [Example 93, (S)-quinuclidin-3-yl (5-(2,5-dichlorophenyl)-2,2-dimethyl-2,3-dihydro-1H-inden-1-yl)carbamate]	10.5 nM
CCCOc1ccc(-c2cc3c(cc2F)C(NC(=O)O[C@@H]2CN4CCC2CC4)C(C)(C)C3)cc1 (stereo partly drawn) [Example 357, (S)-quinuclidin-3-yl (6-fluoro-2,2-dimethyl-5-(4-propoxyphenyl)-2,3-dihydro-1H-inden-1-yl)carbamate]	5.3 nM
COCCOc1ccccc1-c1ccc2c(c1)CC(C)(C)C2NC(=O)O[C@@H]1CN2CCC1CC2 (stereo partly drawn) [Example 99, (S)-quinuclidin-3-yl (5-(2-(2-methoxyethoxy)phenyl)-2,2-dimethyl-2,3-dihydro-1H-inden-1-yl)carbamate]	22.2 nM
CCC1(CC)Cc2cc(-c3ccc(C4CC4)cc3)ccc2C1NC(=O)O[C@@H]1CN2CCC1CC2 (stereo partly drawn) [Example 281, (S)-quinuclidin-3-yl (5-(4-cyclopropylphenyl)-2,2-diethyl-2,3-dihydro-1H-inden-1-yl)carbamate]	5 nM
O=C(NC1CCc2cc(-c3cccc(F)c3F)ccc21)O[C@@H]1CN2CCC1CC2 (stereo partly drawn) [Example 17, (S)-quinuclidin-3-yl (5-(2,3-difluorophenyl)-2,3-dihydro-1H-inden-1-yl)carbamate]	27.6 nM
COCOc1ccccc1-c1ccc2c(c1)CC(C)(C)C2NC(=O)O[C@@H]1CN2CCC1CC2 (stereo partly drawn) [Example 102, (S)-quinuclidin-3-yl (5-(2-(methoxymethoxy)phenyl)-2,2-dimethyl-2,3-dihydro-1H-inden-1-yl)carbamate]	17.4 nM
O=C(NC1CCc2cc(-c3ccc(OC(F)(F)F)cc3)ccc21)O[C@@H]1CN2CCC1CC2 (stereo partly drawn) [Example 4, (S)-quinuclidin-3-yl (5-(4-(trifluoromethoxy)phenyl)-2,3-dihydro-1H-inden-1-yl)carbamate]	95.8 nM
COc1cc(-c2ccc3c(c2)CC(C)(C)C3NC(=O)O[C@@H]2CN3CCC2CC3)ccc1Cl (stereo partly drawn) [Example 125, (S)-quinuclidin-3-yl (5-(4-chloro-3-methoxyphenyl)-2,2-dimethyl-2,3-dihydro-1H-inden-1-yl)carbamate]	9.5 nM
CCOc1cccc(-c2ccc3c(c2)CC(CC)(CC)C3NC(=O)O[C@@H]2CN3CCC2CC3)c1 (stereo partly drawn) [Example 290, (S)-quinuclidin-3-yl (5-(3-ethoxyphenyl)-2,2-diethyl-2,3-dihydro-1H-inden-1-yl)carbamate]	12.3 nM
CC1(C)Cc2cc(-c3ccc4c(c3)OCCCO4)ccc2C1NC(=O)O[C@@H]1CN2CCC1CC2 (stereo partly drawn) [Example 154, (S)-quinuclidin-3-yl (5-(3,4-dihydro-2H-benzo[b][1,4]dioxepin-7-yl)-2,2-dimethyl-2,3-dihydro-1H-inden-1-yl)carbamate]	27.4 nM
Cc1ccc(-c2ccc3c(c2)CC(C)(C)C3NC(=O)O[C@@H]2CN3CCC2CC3)c(F)c1 (stereo partly drawn) [Example 233, (S)-quinuclidin-3-yl (5-(2-fluoro-4-methylphenyl)-2,2-dimethyl-2,3-dihydro-1H-inden-1-yl)carbamate]	23.3 nM
COc1cccc(-c2ccc3c(c2)CC(C)(C)C3NC(=O)O[C@@H]2CN3CCC2CC3)c1 (stereo partly drawn) [Example 103, (S)-quinuclidin-3-yl (5-(3-methoxyphenyl)-2,2-dimethyl-2,3-dihydro-1H-inden-1-yl)carbamate]	19.5 nM
O=C(NC1CCc2ccc(-c3ccc(Cl)cc3)cc21)O[C@@H]1CN2CCC1CC2 (stereo partly drawn) [Example 26, (S)-quinuclidin-3-yl (6-(4-chlorophenyl)-2,3-dihydro-1H-inden-1-yl)carbamate]	67.2 nM
O=C(NC1c2ccc(-c3cccc(C(F)(F)F)c3)cc2CC12CC2)O[C@@H]1CN2CCC1CC2 (stereo partly drawn) [Example 394, (S)-quinuclidin-3-yl (5′-(3-(trifluoromethyl)phenyl)-1′,3′-dihydrospiro[cyclopropane-1,2′-inden]-1′-yl)carbamate]	48.8 nM
CCOc1ccc(-c2ccc3c(c2)CC(C)(C)C3NC(=O)O[C@@H]2CN3CCC2CC3)cc1Cl (stereo partly drawn) [Example 204, (S)-quinuclidin-3-yl (5-(3-chloro-4-ethoxyphenyl)-2,2-dimethyl-2,3-dihydro-1H-inden-1-yl)carbamate]	57.2 nM
CC1(C)Cc2cc(-c3ccc(F)cc3Cl)ccc2C1NC(=O)O[C@@H]1CN2CCC1CC2 (stereo partly drawn) [Example 225, (S)-quinuclidin-3-yl (5-(2-chloro-4-fluorophenyl)-2,2-dimethyl-2,3-dihydro-1H-inden-1-yl)carbamate]	21.3 nM
CC1(C)CC(NC(=O)O[C@@H]2CN3CCC2CC3)c2ccc(-c3cccc(OC(F)(F)F)c3)cc21 (stereo partly drawn) [Example 402, (S)-quinuclidin-3-yl (3,3-dimethyl-5-(3-(trifluoromethoxy)phenyl)-2,3-dihydro-1H-inden-1-yl)carbamate]	19.5 nM
CC1(C)Cc2cc(-c3ccc(F)cc3F)ccc2C1NC(=O)O[C@@H]1CN2CCC1CC2 (stereo partly drawn) [Example 89, (S)-quinuclidin-3-yl (5-(2,4-difluorophenyl)-2,2-dimethyl-2,3-dihydro-1H-inden-1-yl)carbamate]	50 nM
